Reference: US7129230B2, “Method and product for treating cancer in pets” (Nestec S.A., priority 2001, dated 2006)
Entries after “also recorded” stand apart in the source; their conditions may differ. Like-named read-outs stand apart in the source and are kept apart here.

Tests used:
[1] = tested on: SCC 2/88 cells; test: Growth of SCC 2/88 cells by fluorescence DNA concentration analysis; assay type: cell-based, canine; conditions: three-day treatment
Description: Cell culture. […] Each experiment was run in triplicate.

[2] = tested on: involucrin in SCC 2/88 cells; test: Cell differentiation: involucrin by SDS-PAGE and Western blot in SCC 2/88 cells; assay type: cell-based, canine; conditions: post-confluent cells, up to 7 days; for involucrin expression (anti-involucrin reactive bands) compared to vehicle: 10^−7 M; for involucrin expression (anti-involucrin reactive bands): 10^−9 M
Description: Cell differentiation. Involucrin was extracted from cultured SCC 2/88 cells grown in 175 cm2 culture flasks (Becton Dickinson, Franklin Lakes, N.J.) for one week. Post confluent cells were treated with either vehicle, 1,25(OH)2D3, EB 1089, or analog V at concentrations 10^−7 M and 10^−9 M for up to 7 days. Cells were washed and released from the culture flask with phosphate buffered saline containing 20 mM EDTA. Cells were disrupted with a Branson sonifier (Branson Ultrasonic Corporation, Danbury, Conn.) at a setting of 6 for 3×30 seconds and centrifuged at 100,000 G for 30 minutes at 10° C. The supernatant (cytosol) was made 10% in glycerol and 62.5 mM in Tris-HCl (pH 6.8) and heated for 10 minutes at 100° C. The denatured proteins were removed by centrifugation at 15,000 G for 15 minutes. Involucrin in the supernatant was collected stored at −70° C. until Western blot analysis was performed.
Extracted proteins (20 μg) were separated by electrophoresis through 7.5 % sodium dodecyl sulfate (SDS)-polyacrylamide gel, and transferred to nitrocellulose membrane with use of a semi-dry transferred technique (Bio-Rad laboratories, Hercules, Calif.). The membrane was then blocked in blocking solution (10% dry milk, 0.05% Tween 20 in phosphate buffered saline) overnight at 4° C. The preblocked membrane was incubated in mouse monoclonal antibody against involucrin (Research Diagnotics Inc., Flanders, N.J.) 1:500 for an hour and extensively washed in PBS (pH 7.4) containing 0.05% Tween 20. The blot was then incubated in goat anti-mouse IgG (horseradish peroxidase) (Bio-Rad laboratories, Hercules, Calif.) 1:500 for an hour. After further washing in phosphate buffered saline containing 0.05% Tween 20, the blot was developed for 1 minute in the LumiGLO Chemiluminescent substrate (Kirkegaard and Perry laboratories, Gaithersburg, Md.), and then exposed to x-ray film for 1–5 seconds. After exposure, the membrane was stripped and incubated with mouse monoclonal anti-β-actin (Sigma, Saint Louis, Mo.) to normalize for protein loading. AlphaImager™ Alpha Innotech Corporation, San Leandro) measured the density of involucrin bands.

[3] = tested on: PTHrP production in SCC 2/88 cells; conditions: Merryman et al 1993, cited from earlier work
[4] = tested on: thyroid anaplastic carcinoma cell lines; conditions: four thyroid anaplastic carcinoma cell lines; cited from earlier work
[5] = tested on: TGF-β mRNA in SCC 2/88 cells; test: Northern blot analysis of TGF-β mRNA expression in SCC 2/88 cells; assay type: cell-based, canine; conditions: 10^−7 M, 0, 3, 6, 12 and 24 hrs
[6] = tested on: human and rat liver cancer cell lines; conditions: cited from earlier work
[7] = tested on: human prostate cancer cell line; conditions: cited from earlier work
[8] = tested on: murine squamous cell carcinoma (SCC) tumor model; conditions: in vitro and in vivo; cited from earlier work
[9] = tested on: osteosarcoma cell lines; conditions: four canine osteosarcoma cell lines; cited from earlier work
[10] = tested on: PTHrP production in human squamous cell lines; conditions: cited from earlier work
[11] = tested on: PTHrP mRNA in SCC 2/88 cells; test: Northern blot analysis of PTHrP mRNA expression in SCC 2/88 cells; assay type: cell-based, canine

| Compound | growth of SCC 2/88 cells (concentration of DNA) ([1]; 10^−7 M) | growth of SCC 2/88 cells (concentration of DNA) ([1]; 10^−9 M) | involucrin expression (anti-involucrin reactive bands) compared to vehicle [2] | involucrin expression (anti-involucrin reactive bands) [2] | PTHrP production in SCC 2/88 cells [3] | cell growth [4] | further results |
| --- | --- | --- | --- | --- | --- | --- | --- |
| C=C1C(=CC=C2CCCC3(C)C(C(C)CC#CC(C)(C)O)=CCC23)CC(O)CC1O (stereo not drawn) [analog V, 1,25-dihydroxy-16-ene-23-yne-vitamin D] | inhibit cell proliferation; also recorded: significantly reduced the concentration of DNA; also recorded: significantly diminished cell growth | no significant inhibition of cell growth | more weakly defined than that of the vehicle-treated control; also recorded: diminished involucrin expression; also recorded: weak or substantially absent anti-involucrin reactive bands | more intense than those of the other treated groups; also recorded: stronger anti-involucrin reactive band | promote PTHrP production |  |  |
| C=C1/C(=C\C=C2/CCC[C@]3(C)[C@@H]([C@H](C)/C=C/C=C/C(O)(CC)CC)CC[C@@H]23)C[C@@H](O)C[C@@H]1O [EB 1089, 22,24-diene-24a,26a,27a-trihomo-1α,25-dihydroxyvitamin D3] | inhibit cell proliferation; also recorded: significantly reduced the concentration of DNA; also recorded: significantly diminished cell growth | inhibits cell growth significantly; also recorded: significantly reduced the concentration of DNA; also recorded: reduced cell growth at a lower confidence level | more weakly defined than that of the vehicle-treated control; also recorded: diminished involucrin expression; also recorded: weak or substantially absent anti-involucrin reactive bands | diminished involucrin expression; also recorded: diminished levels of involucrin | promote PTHrP production |  |  |
| C=C1/C(=C\C=C2/CCC[C@]3(C)[C@@H]([C@H](C)OCCC(C)(C)O)CC[C@@H]23)C[C@@H](O)C[C@@H]1O [22-oxacalcitriol] |  |  |  |  |  | dose-dependent inhibition of cell growth in all four of the cell lines |  |
| C=C1/C(=C\C=C2/CCC[C@]3(C)[C@@H]([C@H](C)CCCC(C)(C)O)CC[C@@H]23)C[C@@H](O)C[C@@H]1O [1,25(OH)2D3] | inhibit cell proliferation; also recorded: significantly reduced the concentration of DNA |  | diminished involucrin expression | diminished involucrin expression | promote PTHrP production | diphasic cell growth in three of the four cell lines | TGF-β mRNA expression compared to vehicle-treated control [5]: did not differ significantly; PTHrP production in SCC 2/88 cells ([3]; listed as 1,25-(OH)2D3): stimulates production of parathyroid hormone-related protein; anti-proliferative activity [6]: anti-proliferative activity in some human and rat liver cancer cell lines; cell growth and differentiation [7]: inhibits cell growth and promotes differentiation in a dose-dependent manner; antitumor effects [8]: significant antitumor effects; alkaline phosphatase activity [9]: increases alkaline phosphatase activity in one cell line; osteocalcin production [9]: osteocalcin production in two lines; type I collagen production [9]: type I collagen production in three lines; PTHrP production [10]: inhibits PTHrP production |
| TGF-β |  |  |  |  |  |  | increase in PTHrP mRNA compared to vehicle-treated control ([11]; TGF-β 1.5 ng/mL, 6, 12 and 24 hr): 5- to 20 fold; increase in PTHrP mRNA compared with vehicle-treated control ([11]; TGF-β, after 24 hr): 2- to 20 fold |
